From ChEMBL document CHEMBL1201862, “PubChem BioAssay data set” (2004)
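Where inhibition never reached the appropriate level, the endpoint shown equals the highest concentration tested. Otherwise, values were interpolated linearly from a five-concentration, 48-hour dose response in 96-well plates. GI50 marks 50% less growth.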 Activity calls are given as the source filed them. Rule as the data show it: active = GI50 up to about 1.1 µM and inactive = higher.

Tests used:
Assay in all cases: growth of human tumour cells (NCI), 48 h
SK-MEL-28 = test system: SK-MEL-28
A549 = test system: A549
EKVX = test system: EKVX
COLO 205 = test system: COLO 205
OVCAR-5 = test system: OVCAR-5
RXF 393 = test system: RXF 393
SNB-75 = test system: SNB-75
OVCAR-8 = test system: OVCAR-8
DLD-1 = test system: DLD-1
LOX IMVI = test system: LOX IMVI
A498 = test system: A498
U-251 = test system: U-251
HCT-15 = test system: HCT-15
SN12C = test system: SN12C
M14 = test system: M14
NCI-H23 = test system: NCI-H23
OVCAR-4 = test system: OVCAR-4
SR = test system: SR

| SMILES | GI50 (SK-MEL-28) | GI50 (A549) | GI50 (EKVX) | GI50 (COLO 205) | GI50 (OVCAR-5) | GI50 (RXF 393) | GI50 (SNB-75) | GI50 (OVCAR-8) | GI50 (DLD-1) | GI50 (LOX IMVI) | GI50 (A498) | GI50 (U-251) | GI50 (HCT-15) | GI50 (SN12C) | GI50 (M14) | GI50 (NCI-H23) | GI50 (OVCAR-4) | GI50 (SR) |
| --- | --- | --- | --- | --- | --- | --- | --- | --- | --- | --- | --- | --- | --- | --- | --- | --- | --- | --- |
| Cc1cccc2[n+]1[C@H]1[C@H]([C@@H]3O[C@H]1c1ccccc13)[S+]([O-])N2 (stereo partly drawn) | > 100 µM (inactive) | 63.2 µM (inactive) | 44.4 µM (inactive) | 61.1 µM (inactive) | 80.7 µM (inactive) | 89.1 µM (inactive) | 58.5 µM (inactive) | 9.98 µM (inactive) | > 100 µM (inactive) | 25.9 µM (inactive) | 93.3 µM (inactive) | 43.8 µM (inactive) | – | – | – | – | – | – |
| N#C/C(=C\c1cc2ccccc2c2ccccc12)c1ccccc1 | 24 µM (inactive) | 7.46 µM (inactive) | 20 µM (inactive) | 3.43 µM (inactive) | 45.4 µM (inactive) | 5.66 µM (inactive) | 2.31 µM (inactive) | 30 µM (inactive) | 5.6 µM (inactive) | 9.51 µM (inactive) | 9.18 µM (inactive) | 5.78 µM (inactive) | 5.24 µM | 9.59 µM (inactive) | 6.05 µM (inactive) | > 30.5 µM (inactive) | 11.2 µM (inactive) | 2.9 µM (inactive) |
| O=C(N/N=C(/c1nc2ccc(Cl)cc2[nH]c1=O)C(O)c1ccc(Cl)cc1Cl)c1ccncc1 (stereo not drawn) | > 100 µM (inactive) | > 100 µM (inactive) | > 100 µM (inactive) | > 100 µM (inactive) | > 100 µM (inactive) | > 100 µM (inactive) | > 100 µM (inactive) | > 100 µM (inactive) | > 100 µM (inactive) | > 100 µM (inactive) | > 100 µM (inactive) | > 100 µM (inactive) | > 100 µM | – | > 100 µM (inactive) | > 100 µM (inactive) | – | – |
| NCCCNCCSSCCCCS(=O)O | 20.9 µM (inactive) | 59.8 µM (inactive) | 85.7 µM (inactive) | 16.4 µM (inactive) | 55.1 µM (inactive) | 30.3 µM (inactive) | 30.8 µM (inactive) | 38.6 µM (inactive) | 45.8 µM (inactive) | 8.32 µM (inactive) | > 100 µM (inactive) | > 100 µM (inactive) | > 100 µM | 39.6 µM (inactive) | 18.5 µM (inactive) | 17.7 µM (inactive) | 14.6 µM (inactive) | 3.37 µM (inactive) |
| CC(=O)N1C/C(=C\c2ccc(N(C)C)cc2)C(=O)/C(=C/c2ccc(N(C)C)cc2)C1 | > 100 µM (inactive) | > 100 µM (inactive) | – | > 10 µM (inactive) | > 100 µM (inactive) | 41.6 µM (inactive) | 17.2 µM (inactive) | 84.1 µM (inactive) | 68.1 µM (inactive) | 35.3 µM (inactive) | 33.5 µM (inactive) | 31.1 µM (inactive) | > 100 µM | 72.3 µM (inactive) | 40.1 µM (inactive) | > 100 µM (inactive) | > 100 µM (inactive) | 35.6 µM (inactive) |
| NC(=S)N/N=C(\C(=O)Nc1cccc([N+](=O)[O-])c1)c1nc2ccc([N+](=O)[O-])cc2nc1O | > 100 µM (inactive) | 91.2 µM (inactive) | 54.3 µM (inactive) | > 100 µM (inactive) | > 100 µM (inactive) | > 100 µM (inactive) | > 100 µM (inactive) | > 100 µM (inactive) | 42 µM (inactive) | 34.7 µM (inactive) | > 100 µM (inactive) | > 100 µM (inactive) | 29.4 µM | – | 88.9 µM (inactive) | > 100 µM (inactive) | > 100 µM (inactive) | – |
| COc1cc(C2C(C(=O)Nc3ccc([N+](=O)[O-])cc3)=C(C)NC(C)=C2C(=O)Nc2ccc([N+](=O)[O-])cc2)ccc1O | 4.16 µM (inactive) | 37.6 µM (inactive) | 39.1 µM (inactive) | 16.4 µM (inactive) | 35.6 µM (inactive) | 19.5 µM (inactive) | 30.5 µM (inactive) | 19.9 µM (inactive) | 25.6 µM (inactive) | 14.6 µM (inactive) | 36.7 µM (inactive) | 16.8 µM (inactive) | 19.1 µM | 18.4 µM (inactive) | 23.9 µM (inactive) | 26.7 µM (inactive) | 27 µM (inactive) | 5.07 µM (inactive) |
| Cc1ns/c(=N\C(=S)N(C)C)n1C | > 100 µM (inactive) | > 100 µM (inactive) | > 100 µM (inactive) | – | > 100 µM (inactive) | > 100 µM (inactive) | > 100 µM (inactive) | > 100 µM (inactive) | > 100 µM (inactive) | – | > 100 µM (inactive) | > 100 µM (inactive) | > 100 µM | > 100 µM (inactive) | > 100 µM (inactive) | > 100 µM (inactive) | > 100 µM (inactive) | > 100 µM (inactive) |
| Cc1cccc(C)c1NC(=O)C(=O)CC(=O)c1cccc([N+](=O)[O-])c1 | > 100 µM (inactive) | > 100 µM (inactive) | > 100 µM (inactive) | > 100 µM (inactive) | > 100 µM (inactive) | – | > 100 µM (inactive) | > 100 µM (inactive) | > 100 µM (inactive) | – | > 100 µM (inactive) | > 100 µM (inactive) | > 100 µM | > 100 µM (inactive) | > 100 µM (inactive) | > 100 µM (inactive) | > 100 µM (inactive) | > 100 µM (inactive) |
| COc1ccc(NC(=O)COC(=O)c2cccc3c(=O)c4ccccc4[nH]c23)cc1 | 30.8 µM (inactive) | 20.3 µM (inactive) | 18.4 µM (inactive) | 17.8 µM (inactive) | – | 15.3 µM (inactive) | 21 µM (inactive) | 22.4 µM (inactive) | 13.9 µM (inactive) | 15 µM (inactive) | 11.3 µM (inactive) | 19.5 µM (inactive) | – | 27.5 µM (inactive) | 29.6 µM (inactive) | 15.1 µM (inactive) | 17.9 µM (inactive) | 11.3 µM (inactive) |
| Cn1ncc2c(c1=O)Nc1ccccc1S2(=O)=O | > 100 µM (inactive) | > 100 µM (inactive) | > 100 µM (inactive) | 54.7 µM (inactive) | > 100 µM (inactive) | – | > 100 µM (inactive) | > 100 µM (inactive) | > 100 µM (inactive) | > 100 µM (inactive) | > 100 µM (inactive) | 34.6 µM (inactive) | > 100 µM | > 100 µM (inactive) | > 100 µM (inactive) | > 100 µM (inactive) | > 100 µM (inactive) | 51.3 µM (inactive) |
| Cc1ccc(C)c(N2C(=O)C(=O)C(c3nc4ccccc4s3)C(=O)C2=O)c1 | > 100 µM (inactive) | > 100 µM (inactive) | > 100 µM (inactive) | > 100 µM (inactive) | 71.8 µM (inactive) | > 100 µM (inactive) | > 100 µM (inactive) | > 100 µM (inactive) | > 100 µM (inactive) | > 100 µM (inactive) | > 100 µM (inactive) | 83.8 µM (inactive) | > 100 µM | > 100 µM (inactive) | > 100 µM (inactive) | > 100 µM (inactive) | > 100 µM (inactive) | – |
| CC(Oc1ccc2c(=O)cc(-c3ccccc3)oc2c1)C(=O)O (stereo not drawn) | > 100 µM (inactive) | > 100 µM (inactive) | > 100 µM (inactive) | > 100 µM (inactive) | – | > 100 µM (inactive) | > 100 µM (inactive) | > 100 µM (inactive) | > 100 µM (inactive) | > 100 µM (inactive) | > 100 µM (inactive) | > 100 µM (inactive) | – | > 100 µM (inactive) | > 100 µM (inactive) | > 100 µM (inactive) | > 100 µM (inactive) | > 100 µM (inactive) |
| CCOc1cc2c[n+](C)c3c4cc(OC)c(OC)cc4ccc3c2cc1OC | > 100 µM (inactive) | > 100 µM (inactive) | > 100 µM (inactive) | > 100 µM (inactive) | > 100 µM (inactive) | > 100 µM (inactive) | > 100 µM (inactive) | 17.7 µM (inactive) | > 100 µM (inactive) | > 100 µM (inactive) | – | > 100 µM (inactive) | > 100 µM | > 100 µM (inactive) | > 100 µM (inactive) | > 100 µM (inactive) | > 100 µM (inactive) | 20.4 µM (inactive) |
| Brc1ccc(/C=N/C23CC4CC(CC(C4)C2)C3)cc1 | > 100 µM (inactive) | > 100 µM (inactive) | > 100 µM (inactive) | > 100 µM (inactive) | > 100 µM (inactive) | > 100 µM (inactive) | > 100 µM (inactive) | > 100 µM (inactive) | > 100 µM (inactive) | > 100 µM (inactive) | > 100 µM (inactive) | > 100 µM (inactive) | > 100 µM | > 100 µM (inactive) | > 100 µM (inactive) | > 100 µM (inactive) | > 100 µM (inactive) | – |
| COc1ccc(S(=O)(=O)NNS(C)(=O)=O)cc1 | – | > 100 µM (inactive) | > 100 µM (inactive) | > 100 µM (inactive) | – | > 100 µM (inactive) | > 100 µM (inactive) | > 100 µM (inactive) | 87.5 µM (inactive) | > 100 µM (inactive) | > 100 µM (inactive) | > 100 µM (inactive) | > 10 µM | > 100 µM (inactive) | > 100 µM (inactive) | > 100 µM (inactive) | > 100 µM (inactive) | > 100 µM (inactive) |
| CC(=O)Nc1ccc(-c2nnc(SCC(=O)Nc3ccc(C)cc3)o2)cc1 | 16.1 µM (inactive) | 40.3 µM (inactive) | – | 17.7 µM (inactive) | 19.6 µM (inactive) | 19 µM (inactive) | 16.4 µM (inactive) | 27.7 µM (inactive) | 14.9 µM (inactive) | 15.2 µM (inactive) | – | 19.4 µM (inactive) | 16.2 µM | 15.8 µM (inactive) | 16.1 µM (inactive) | 15.7 µM (inactive) | 17.7 µM (inactive) | 28 µM (inactive) |
